The assay addresses His-tagged Human KRAS^G12D (Homo sapiens (Human), UniProt P01116, G12D). The experiment in a line: HTRF KRAS G12D GTP binding assay. As to conditions: displacement of GTP-Red tracer. Here is the method:
KRAS^G12D was used in this assay.
The ability of a test compound to bind to KRAS^G12D was measured by using an HTRF KRAS^G12D GTP Binding Kit (Cisbio, 63ADK000CB27PEG). […] 5 μL of compound solution was added to each well after serial dilution, followed by addition of 5 μL of GDP (50 nM) solution. After 30 minutes incubation at room temperature, 1×6His Eu cryptate antibody solution and GTP-Red tracer were added to the plate, then incubated for another 30 minutes. The HTRF signal was measured with a VICTOR Nivo multimode plate reader according to the manufacturer's instructions. The percent inhibition was calculated using the following formula: […]
(where the “Maximum Signal” are wells containing DMSO without inhibitor; the “Minimum Signal” are wells containing reference inhibitory component (GDP); the “Test compound signal” are wells containing test compound (inhibitor) at established concentrations).
IC50 was determined by fitting percent inhibition at each inhibitor concentration to the four-parameter nonlinear logistic equation using GraphPad Prism.
A general note: TR-FRET usually uses a lanthanide donor and a delayed reading to cut background.

Drawing on patent US20240239813A1, “KRAS INHIBITORS AND PHARMACEUTICAL USES THEREOF” (RISEN (SUZHOU) PHARMA TECH CO., LTD., priority 2022, published 2024), this text covers IC50 for 52 compounds.

Each structure is given as a SMILES string. Where only a bound is given, the exact number is not on record here.

Sequence of His-tagged Human KRAS^G12D (P01116-2 other isoform, or with tags, fused parts or gaps G12D): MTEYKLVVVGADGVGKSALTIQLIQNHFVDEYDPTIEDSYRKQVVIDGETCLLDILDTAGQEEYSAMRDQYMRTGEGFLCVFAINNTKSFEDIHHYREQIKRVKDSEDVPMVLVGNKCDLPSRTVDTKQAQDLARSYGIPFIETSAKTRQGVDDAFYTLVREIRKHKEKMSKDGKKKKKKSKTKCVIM

Take `CCc1c(F)ccc2cc(O)cc(-c3ncc4c(N5CCC6(CCOC6)C5)nc(OC[C@@]56CCCN5C[C@H](F)C6)nc4c3F)c12` (stereo partly shown) [Compound 1a]: the IC50 (in general, the concentration needed to halve the response being measured) is 752 nM.

`CCc1c(F)ccc2cc(O)cc(-c3ncc4c(N5CCCC6(CCO6)C5)nc(OC[C@@H]5C[C@@H](F)CN5C)nc4c3F)c12` (stereo partly shown) [Compound 3a] returned an IC50 of 141 nM.

As to `CCc1c(F)ccc2cc(O)cc(-c3ncc4c(N5CCCC6(CCN6)C5)nc(OC[C@@]56CCCN5C[C@H](F)C6)nc4c3F)c12` (stereo partly shown) [Compound 4a], the half-maximal inhibitory concentration (IC50) was greater than 1000 nM.

`CCc1c(F)ccc2cc(O)cc(-c3ncc4c(N5CCC[C@@H](OC)C5)nc(OC[C@@]56CCCN5C[C@H](F)C6)nc4c3F)c12` [Compound 5a] registered an IC50 of 652 nM.

In the case of `CCc1c(F)ccc2cc(O)cc(-c3ncc4c(N5CC6(CCO6)C5)nc(OC[C@@]56CCCN5C[C@H](F)C6)nc4c3F)c12` [Compound 6a], the IC50 was greater than 1000 nM.

Regarding `CCc1c(F)ccc2cc(O)cc(-c3ncc4c(N5CC6CC(CO)(C6)C5)nc(OC[C@@]56CCCN5C[C@H](F)C6)nc4c3F)c12` [Compound 7a], the concentration for half-maximal inhibition (IC50) was greater than 1000 nM.

With `CCc1c(F)ccc2cc(O)cc(-c3ncc4c(N5CCC[C@H]5C(=O)O)nc(OC[C@@]56CCCN5C[C@H](F)C6)nc4c3F)c12` [Compound 8], the IC50 is greater than 1000 nM.

Regarding `CCc1c(F)ccc2cc(O)cc(-c3ncc4c(N5CCCC6(CCO6)C5)nc(OC[C@H](C)OC)nc4c3F)c12` (stereo partly shown) [Compound 11a], the 50% inhibitory concentration (IC50) was greater than 1000 nM.

With `CCc1c(F)ccc2cc(O)cc(-c3ncc4c(N5C6CCC5COC6)nc(OC[C@@]56CCCN5C[C@H](F)C6)nc4c3F)c12` [Compound 12], the IC50 is greater than 1000 nM.

For the compound `CCc1c(F)ccc2cc(O)cc(-c3ncc4c(N5CCC[C@]6(CCO6)C5)nc(OCC5(CN6CCN(C)CC6)CC5)nc4c3F)c12` [Compound 12a], the IC50 stood at 12.1 nM.

Compound `CCc1c(F)ccc2cc(O)cc(-c3ncc4c(N5CC6CCC(C5)O6)nc(OC[C@@]56CCCN5C[C@H](F)C6)nc4c3F)c12` [Compound 13] yielded an IC50 of 979 nM.

`CCc1c(F)ccc2cc(O)cc(-c3ncc4c(N5CCC[C@]6(CCO6)C5)nc(OCC5(CN6CCC6)CC5)nc4c3F)c12` [Compound 13a] returned an IC50 of 13.2 nM.

`CCc1c(F)ccc2cc(O)cc(-c3ncc4c(N5CCCC56COC6)nc(OC[C@@]56CCCN5C[C@H](F)C6)nc4c3F)c12` [Compound 14]: the IC50 is greater than 1000 nM.

`Cc1ccc2[nH]ncc2c1-c1ccc2c(N3CCC[C@]4(CCO4)C3)nc(OCC3(CN(C)C)CC3)nc2c1F` [Compound 14a] had an IC50 greater than 1000 nM.

The compound `CCc1c(F)ccc2cc(O)cc(-c3ncc4c(N5C6CCC5CC6)nc(OC[C@@]56CCCN5C[C@H](F)C6)nc4c3F)c12` [Compound 15] had an IC50 greater than 1000 nM.

Compound `CCc1c(F)ccc2cc(O)cc(-c3ncc4c(N5CCC(C)(O)C5)nc(OC[C@@]56CCCN5C[C@H](F)C6)nc4c3F)c12` (stereo partly shown) [Compound 16] showed an IC50 greater than 1000 nM.

As for `CCc1c(F)ccc2cc(O)cc(-c3ncc4c(N5C6CCCC5CC6)nc(OC[C@@]56CCCN5C[C@H](F)C6)nc4c3F)c12` [Compound 17], the IC50 is greater than 1000 nM.

On to `CCc1c(F)ccc2cc(O)cc(-c3ncc4c(N5CC(C)(O)C5)nc(OC[C@@]56CCCN5C[C@H](F)C6)nc4c3F)c12` [Compound 18], for which the IC50 was greater than 10000 nM.

In the case of `CCc1c(F)ccc2cc(O)cc(-c3ncc4c(N5CCCC5c5ccccc5)nc(OC[C@@]56CCCN5C[C@H](F)C6)nc4c3F)c12` (stereo partly shown) [Compound 19], the IC50 is greater than 10000 nM.

`CCc1c(F)ccc2cc(O)cc(-c3ncc4c(N5CCCC(c6ccccc6)C5)nc(OC[C@@]56CCCN5C[C@H](F)C6)nc4c3F)c12` (stereo partly shown) [Compound 20]: the IC50 was greater than 10000 nM.

In turn, `CCc1c(F)ccc2cc(O)cc(-c3ncc4c(N5CC(F)(F)C[C@H]5CO)nc(OC[C@@]56CCCN5C[C@H](F)C6)nc4c3F)c12` [Compound 21] registered an IC50 greater than 10000 nM.

In the case of `CCc1c(F)ccc2cc(O)cc(-c3ncc4c(N5CCC[C@@]5(C)CO)nc(OC[C@@]56CCCN5C[C@H](F)C6)nc4c3F)c12` [Compound 22], the IC50 is greater than 10000 nM.

The compound `CCc1c(F)ccc2cc(O)cc(-c3ncc4c(N5CCC[C@H]5CN)nc(OC[C@@]56CCCN5C[C@H](F)C6)nc4c3F)c12` [Compound 23] returned an IC50 of 1350 nM.

With `CCc1c(F)ccc2cc(O)cc(-c3ncc4c(N5CCC[C@]6(CCO6)C5)nc(OCC5(CN6CCC7(CCC7)CC6)CC5)nc4c3F)c12` [Compound 23a], the IC50 came to 31.2 nM.

`CCc1c(F)ccc2cc(O)cc(-c3ncc4c(N5CCCC5c5cccnc5)nc(OC[C@@]56CCCN5C[C@H](F)C6)nc4c3F)c12` (stereo partly shown) [Compound 24]: the IC50 was greater than 10000 nM.

Regarding `CN(C)CC1(COc2nc(N3CCC[C@]4(CCO4)C3)c3cnc(-c4cc(O)ccc4-c4cccs4)c(F)c3n2)CC1` [Compound 25a], the IC50 stood at 639 nM.

Regarding `CCc1c(F)ccc2cc(O)cc(-c3ncc4c(N5CCCC(Cl)(CCO)C5)nc(OC[C@@]56CCCN5C[C@H](F)C6)nc4c3F)c12` (stereo partly shown) [Compound 26], the IC50 amounted to 1530 nM.

On to `CCc1c(F)ccc2cc(O)cc(-c3ncc4c(N5C[C@@H]6C[C@@H](O)[C@H]5C6)nc(OC[C@@]56CCCN5C[C@H](F)C6)nc4c3F)c12` [Compound 27], for which the IC50 is greater than 10000 nM.

`CCc1c(F)ccc2cc(O)cc(-c3ncc4c(NC5CC6(CCC6)C5)nc(OC[C@@]56CCCN5C[C@H](F)C6)nc4c3F)c12` [Compound 28] gave an IC50 greater than 10000 nM.

For the compound `CCc1c(F)ccc2cc(O)cc(-c3ncc4c(N5CCC[C@]6(CCO6)C5)nc(OCC5(CN6CC(F)(F)C6)CC5)nc4c3F)c12` [Compound 28a], the IC50 worked out at 159 nM.

Turning to `CCc1c(F)ccc2cc(O)cc(-c3ncc4c(N5CC[C@@H](C(C)(C)O)C5)nc(OC[C@@]56CCCN5C[C@H](F)C6)nc4c3F)c12` [Compound 29], the IC50 was greater than 10000 nM.

With `CCc1c(F)ccc2cc(O)cc(-c3ncc4c(N5CCC[C@H]5CN5CCCC5)nc(OC[C@@]56CCCN5C[C@H](F)C6)nc4c3F)c12` [Compound 30], the IC50 is greater than 10000 nM.

Take `CCc1c(F)ccc2cc(O)cc(-c3ncc4c(N5CCC[C@]6(CCO6)C5)nc(OCC5(CN6CCC(F)(F)CC6)CC5)nc4c3F)c12` [Compound 30a]: the IC50 was 41.6 nM.

In turn, `CCc1c(F)ccc2cc(O)cc(-c3ncc4c(N5CCN(C(C)=O)[C@H](C)C5)nc(OC[C@@]56CCCN5C[C@H](F)C6)nc4c3F)c12` [Compound 31] registered an IC50 greater than 10000 nM.

The compound `CCc1c(F)ccc2cc(O)cc(-c3ncc4c(N5CCC[C@]6(CCO6)C5)nc(OCC5(CC(N)=O)CC5)nc4c3F)c12` [Compound 31a] showed an IC50 of 518 nM.

With `CCc1c(F)ccc2cc(O)cc(-c3ncc4c(N5CC[C@@H](CO)C5)nc(OC[C@@]56CCCN5C[C@H](F)C6)nc4c3F)c12` [Compound 32], the IC50 is greater than 1000 nM.

The compound `CCc1c(F)ccc2cc(O)cc(-c3ncc4c(N(C)CC(C)(C)O)nc(OCC5(CN(C)C)CC5)nc4c3F)c12` [Compound 32a] showed an IC50 of 481 nM.

The compound `CCc1c(F)ccc2cc(O)cc(-c3ncc4c(N5C[C@@H](N)C[C@H]5CO)nc(OC[C@@]56CCCN5C[C@H](F)C6)nc4c3F)c12` [Compound 33] had an IC50 greater than 1000 nM.

Regarding `CCc1c(F)ccc2cc(O)cc(-c3ncc4c(N5CCN[C@H](C)C5)nc(OC[C@@]56CCCN5C[C@H](F)C6)nc4c3F)c12` [Compound 34], the IC50 was greater than 1000 nM.

The compound `CCc1c(F)ccc2cc(O)cc(-c3ncc4c(N5C[C@@H]6C[C@H]5CO6)nc(OC[C@@]56CCCN5C[C@H](F)C6)nc4c3F)c12` [Compound 35] registered an IC50 greater than 1000 nM.

`CN(C)CC1(COc2nc(N3CCC[C@]4(CCO4)C3)c3cnc(-c4ccc(F)c5sc(N)c(C#N)c45)c(F)c3n2)CC1` [Compound 35a]: the IC50 is greater than 1000 nM.

For `CCc1c(F)ccc2cc(O)cc(-c3ncc4c(N5CC6(CC(O)C6)C5)nc(OC[C@@]56CCCN5C[C@H](F)C6)nc4c3F)c12` [Compound 36], the IC50 was greater than 1000 nM.

`C#Cc1c(F)ccc2cc(O)cc(-c3ncc4c(N5CC=CCC5)nc(OCC5(CN(C)C)CC5)nc4c3F)c12` [Compound 36a] gave an IC50 greater than 1000 nM.

With `CCc1c(F)ccc2cc(O)cc(-c3ncc4c(N5C[C@H]6C[C@@H]5[C@@H](O)C6)nc(OC[C@@]56CCCN5C[C@H](F)C6)nc4c3F)c12` [Compound 37], the IC50 was greater than 1000 nM.

In turn, `CCc1c(F)ccc2cc(O)cc(-c3ncc4c(N5CCC[C@]6(CCO6)C5)nc(OCC5(N(C)C)CC5)nc4c3F)c12` [Compound 37a] gave an IC50 of 121 nM.

As to `CCc1c(F)ccc2cc(O)cc(-c3ncc4c(N5CCCC[C@@H](N)C5)nc(OC[C@@]56CCCN5C[C@H](F)C6)nc4c3F)c12` [Compound 38], the IC50 was found to be 163 nM.

On to `CCc1c(F)ccc2cc(O)cc(-c3ncc4c(N5CC6CC(C6)C5)nc(OCC5(CN(C)C)CC5)nc4c3F)c12` [Compound 38a], for which the IC50 was greater than 1000 nM.

`CN(C)CC1(COc2nc(N3CCC[C@]4(CCO4)C3)c3cc(Cl)c(-c4ccc(F)c5sc(N)c(C#N)c45)c(F)c3n2)CC1` [Compound 39a] came in with an IC50 greater than 1000 nM.

Compound `CCc1c(F)ccc2cc(O)cc(-c3ncc4c(N5CCC6(CCCCC6)C5)nc(OC[C@@]56CCCN5C[C@H](F)C6)nc4c3F)c12` [Compound 40] came in with an IC50 greater than 1000 nM.

As to `CCc1c(F)ccc2cc(O)cc(-c3ncc4c(N5CCCC(OC)CC5)nc(OCC5(CN(C)C)CC5)nc4c3F)c12` (stereo not shown) [Compound 40a], the IC50 amounted to 424 nM.

Take `CCc1c(F)ccc2cc(O)cc(-c3ncc4c(N5CCC[C@]6(CCO6)C5)nc(OCC5(CN6CCC(F)C6)CC5)nc4c3F)c12` (stereo partly shown) [Compound 41a]: the IC50 came out at 14.2 nM.

In the case of `CCc1c(F)ccc2cc(O)cc(-c3ncc4c(N5CCCC(C#N)CC5)nc(OCC5(CN(C)C)CC5)nc4c3F)c12` (stereo not shown) [Compound 42a], the IC50 was greater than 1000 nM.
